Drawing on US11524966B1 (Valo Early Discovery, Inc., priority 2017, dated 2022), this text covers IC50 for 17 compounds.

In the first test the target is T1, USP25 (USP25-His6, Boston Biochem E-546) (Homo sapiens, UniProt Q9UHP3).
T1 construct: His6; purchased Boston Biochem E-546
T1 sequence (Q9UHP3 1-1055): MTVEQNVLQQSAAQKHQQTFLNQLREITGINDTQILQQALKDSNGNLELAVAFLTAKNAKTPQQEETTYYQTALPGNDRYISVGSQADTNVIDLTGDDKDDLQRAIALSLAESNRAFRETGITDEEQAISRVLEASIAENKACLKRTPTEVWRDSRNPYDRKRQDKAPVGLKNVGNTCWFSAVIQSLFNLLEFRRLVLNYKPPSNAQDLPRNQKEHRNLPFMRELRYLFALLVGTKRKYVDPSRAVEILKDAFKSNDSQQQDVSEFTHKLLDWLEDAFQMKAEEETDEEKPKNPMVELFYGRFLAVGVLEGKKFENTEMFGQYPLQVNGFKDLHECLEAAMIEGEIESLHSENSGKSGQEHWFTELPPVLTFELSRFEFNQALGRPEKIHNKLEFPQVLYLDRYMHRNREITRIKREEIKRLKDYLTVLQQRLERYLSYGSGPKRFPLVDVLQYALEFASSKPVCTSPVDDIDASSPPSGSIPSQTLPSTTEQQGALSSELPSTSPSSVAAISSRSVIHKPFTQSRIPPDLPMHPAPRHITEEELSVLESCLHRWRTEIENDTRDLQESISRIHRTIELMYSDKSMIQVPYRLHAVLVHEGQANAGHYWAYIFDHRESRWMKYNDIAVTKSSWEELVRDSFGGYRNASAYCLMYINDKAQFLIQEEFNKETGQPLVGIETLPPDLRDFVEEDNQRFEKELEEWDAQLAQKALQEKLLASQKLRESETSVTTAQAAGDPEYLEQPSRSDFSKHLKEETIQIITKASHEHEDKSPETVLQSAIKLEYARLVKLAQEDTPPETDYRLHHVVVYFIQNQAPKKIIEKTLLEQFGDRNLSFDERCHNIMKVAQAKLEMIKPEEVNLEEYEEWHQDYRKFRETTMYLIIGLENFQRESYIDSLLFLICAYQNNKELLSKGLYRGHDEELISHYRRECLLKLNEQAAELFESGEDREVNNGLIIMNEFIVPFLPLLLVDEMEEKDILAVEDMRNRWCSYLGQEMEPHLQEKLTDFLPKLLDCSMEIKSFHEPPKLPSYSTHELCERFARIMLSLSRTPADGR
Kind of test: Ubiquitin-Rhodamine 110 Assay for USP25 Activity, Example A-2. In kind it is biochemical. The following applies: Ubiquitin-Rhodamine 110 assay, Example A-2; read-out: USP25 A-2 IC50 range. The method, boiled down:
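Read-out: Rh110 fluorescence (ex 485, em 535 nm) after 45 min RT turnover of 25 nM Ub-Rh110 by 75 pM USP25-His6, quenched with 10 mM citric acid. Compounds at 25 μM–1.3 nM, preincubated 30 min with enzyme. IC50 from 4-parameter logistic fit.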
`Cc1ccc2c(N)c(C(=O)N[C@H]3COc4cc(N5CCNCC5)cc(F)c4C3)sc2n1` [Example 10-1, (R)-3-amino-N-(5-fluoro-7-(piperazin-1-yl)chroman-3-yl)-6-methylthieno[2,3-b]pyridine-2-carboxamide]: the IC50 (commonly the concentration at which inhibition is half-maximal) lay in the range of 50 to 200 nM. The same measure, in the same setting: the value for `CO[C@H]1CN(c2cc(F)c3c(c2)OC[C@H](NC(=O)c2sc4nc(C)ccc4c2N)C3)C[C@@H]1N` (single isomer, unassigned) [Example 10-3] was 200 to 2000 nM; that for `Cc1cc(C)c2c(N)c(C(=O)N[C@H]3COc4cc(N5CC6CNCC(C5)O6)cc(F)c4C3)sc2n1` [Example 10-13, N-((3R)-7-(9-oxa-3,7-diazabicyclo[3.3.1]nonan-3-yl)-5-fluorochroman-3-yl)-3-amino-4,6-dimethylthieno[2,3-b]pyridine-2-carboxamide] was 1 to 50 nM. Same read-out and setting: with `Cc1cnc2c(N)c(C(=O)N[C@H]3CCc4cc(N5CCNC[C@@H](O)C5)ccc4C3)sc2n1` (single isomer, unassigned) [Example 7-4] the figure was 200 to 2000 nM; with `Cc1ccc2c(N)c(C(=O)N[C@@H]3CCc4cc(N5CCNCC5)cc(F)c4C3)sc2n1` (single isomer, unassigned) [Example 11-12], 200 to 2000 nM. Still for that read-out and setting: the value for `COc1ccc2c(N)c(C(=O)N[C@H]3CCc4cc(N5CC6CCC(C5)N6)ccc4C3)sc2n1` (single isomer, unassigned) [Example 11-5] was 200 to 2000 nM.

Still in this test, the particulars now being: Ubiquitin-Rhodamine 110 assay, format Example A-2; read-out: USP25 A-2 IC50 range.
Turning to `Cc1ccc2c(N)c(C(=O)N[C@H]3COc4cc(N5CC6CCC(C5)N6)nc(F)c4C3)sc2n1` [Example 17, N-((3R)-7-(3,8-Diazabicyclo[3.2.1]octan-3-yl)-5-fluoro-3,4-dihydro-2H-pyrano[3,2-c]pyridin-3-yl)-3-amino-6-methylthieno[2,3-b]pyridine-2-carboxamide], the IC50 is 50 to 200 nM. Still for that read-out and setting: with `Cc1ccc2c(N)c(C(=O)N[C@@H]3CCc4c(F)c(N5CC6CNCC(C5)O6)cc(F)c4C3)sc2n1` (single isomer, unassigned) [Example 22-4] the figure was 1 to 50 nM; with `Cc1ccc2c(N)c(C(=O)N[C@H]3COc4c(F)c(N5CC6CCC(C5)N6)cc(F)c4C3)sc2n1` (single isomer, unassigned) [Example 13-1], 50 to 200 nM. Still for that read-out and setting: with `Cc1ccc2c(N)c(C(=O)N[C@@H]3CCc4cc(N5CC6CCC(C5)N6)c(F)cc4C3)sc2n1` (single isomer, unassigned) [Example 21-3] the figure was 50 to 200 nM. The same measure, in the same setting: with `Cc1ccc2c(N)c(C(=O)N[C@H]3CCc4cc(N5C6CNCC5C6)ccc4C3)sc2n1` (single isomer, unassigned) [Example 11-35] the figure was 200 to 2000 nM.

Take `Cc1ccc2c(N)c(C(=O)N[C@H]3COc4c(cnc(N5CC6CCC(C5)N6)c4F)C3)sc2n1` [Example 18, N-((3R)-7-(3,8-Diazabicyclo[3.2.1]octan-3-yl)-8-fluoro-3,4-dihydro-2H-pyrano[3,2-c]pyridin-3-yl)-3-amino-6-methylthieno[2,3-b]pyridine-2-carboxamide]: the IC50 lay in the range of 50 to 200 nM.

Consider `Cc1ccc2c(N)c(C(=O)N[C@H]3CCc4cc(N5CCNCC5)cnc4C3)sc2n1` (single isomer, unassigned) [Example 15-2], for which the IC50 is > 2000 nM.

As for `Cc1ccc2c(N)c(C(=O)N[C@@H]3CCc4cc(N5CCNCC5)c(F)cc4C3)sc2n1` (single isomer, unassigned) [Example 21-7], the IC50 is 200 to 2000 nM. The same measure, in the same setting: with `Cc1ccc2c(N)c(C(=O)N[C@@H]3COc4c(F)c(N5CC6CCC(C5)N6)cc(F)c4C3)sc2n1` (single isomer, unassigned) [Example 13-2] the figure was > 2000 nM; with `Cc1ccc2c(N)c(C(=O)N[C@@H]3CCc4c(ccc(N5CCNCC5)c4F)C3)sc2n1` (single isomer, unassigned) [Example 21-5], 50 to 200 nM. Still for that read-out and setting: with `Cc1nc2sc(C(=O)N[C@@H]3CCc4c(C#N)c(N5CC6CCC(C5)N6)cc(F)c4C3)c(N)c2s1` (single isomer, unassigned) [Example 14-22] the figure was > 2000 nM.
